Measured values: patent US9955691B2, “Macrocyclic picolinamides as fungicides” (DOW AGROSCIENCES LLC, priority 2014, dated 2018)
Read-outs that look alike come from different tables or passages of the source.

What was measured:
[1] = tested on: Mycosphaerella graminicola; Anamorph: Septoria tritici; assay: Fungicidal activity: Leaf Blotch of Wheat (SEPTTR); assay type: in vivo; conditions: Zymoseptoria tritici, wheat leaf blotch; for pest or weed control at 121.5 g/ha: Low Volume (121.5 g/H); for pest or weed control at 100 µg/mL: High Volume (100 ppm)
Procedure, shortened: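 Compounds were dissolved in acetone, diluted with nine volumes of water containing 110 ppm Triton X-100, and sprayed to run-off on first-leaf Yuma wheat seedlings inoculated with Septoria tritici spores before or after treatment. Plants were held in a dew chamber, then a 20° C. greenhouse. Percent control was derived from disease severity relative to untreated plants.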

[2] = tested on: Puccinia triticina; assay: Fungicidal activity: Wheat Brown Rust (PUCCRT); assay type: in vivo; conditions: for pest or weed control at 121.5 g/ha: Low Volume (121.5 g/H); for pest or weed control at 100 µg/mL: High Volume (100 ppm)
Procedure, shortened: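 Wheat seedlings (Yuma, first leaf) sprayed to run-off with compound in acetone/water with Triton X-100, inoculated with Puccinia triticina before or after treatment. Held overnight in dark dew at 22° C, then greenhouse at 24° C; percent disease control from severity versus untreated plants.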

[3] = 24 h, 1 Day Protectant, read-out: SEPTTR 1 DP disease control
[4] = 72 h, 3 Day Curative, read-out: SEPTTR 3 DC disease control
[5] = 24 h, 1 Day Protectant, read-out: PUCCRT 1 DP disease control
[6] = 72 h, 3 Day Curative, read-out: PUCCRT 3 DC disease control

melting point [°C] | SMILES | pest or weed control at 121.5 g/ha [1, 3] [%] | pest or weed control at 121.5 g/ha [1, 4] [%] | pest or weed control at 121.5 g/ha [2, 5] [%] | pest or weed control at 121.5 g/ha [2, 6] [%] | pest or weed control at 100 µg/mL [1, 3] [%] | pest or weed control at 100 µg/mL [1, 4] [%] | pest or weed control at 100 µg/mL [2, 5] [%] | pest or weed control at 100 µg/mL [2, 6] [%]
57 to 62 | CCC[C@H]1COC[C@H](NC(=O)c2nccc(OC)c2OC(C)=O)C(=O)O[C@@H](C)[C@@H]1Cc1ccc(F)cc1 [compound 107] | > 70 | > 70 | > 70 | > 70 | – | – | – | –
38 to 43 | CCC[C@H]1COC[C@H](NC(=O)c2nccc(OC)c2OCOC(C)=O)C(=O)O[C@@H](C)[C@@H]1Cc1ccc(F)cc1 [compound 108] | > 70 | > 70 | > 70 | > 70 | – | – | – | –
201 to 204 | COc1ccnc(C(=O)N[C@H]2COC[C@H](Cc3ccccc3)[C@@H](Cc3ccccc3)[C@@H](C)OC2=O)c1O [compound 111] | – | – | – | – | > 70 | < 70 | > 70 | > 70
52 to 56 | COc1ccnc(C(=O)N[C@H]2COC[C@H](CCc3ccccc3)[C@@H](CCc3ccccc3)[C@H](C)OC2=O)c1O [compound 113] | – | – | – | – | > 70 | > 70 | > 70 | < 70
64 to 72 | COc1ccnc(C(=O)N[C@H]2COC[C@H](c3ccccc3)[C@@H](c3ccccc3)[C@H](C)OC2=O)c1O [compound 116] | – | – | – | – | > 70 | < 70 | > 70 | > 70
69 to 75 | COc1ccnc(C(=O)N[C@H]2COC[C@H](CC3CCCCC3)[C@@H](CC3CCCCC3)[C@H](C)OC2=O)c1O [compound 119] | – | – | – | – | > 70 | < 70 | > 70 | > 70
62 to 65 | COc1cccc(C[C@H]2COC[C@H](NC(=O)c3nccc(OC)c3O)C(=O)O[C@@H](C)[C@@H]2Cc2cccc(OC)c2)c1 [compound 124] | – | – | – | – | < 70 | < 70 | > 70 | < 70
63 to 69 | COc1ccnc(C(=O)N[C@H]2COC[C@H](Cc3ccccc3)[C@@H](Cc3ccc(OC(F)(F)F)cc3)[C@H](C)OC2=O)c1O [compound 131] | – | – | – | – | > 70 | > 70 | > 70 | > 70
185 to 190 | COc1ccnc(C(=O)N[C@H]2COC[C@H](Cc3ccccc3)[C@@H](c3ccccc3)[C@H](C)OC2=O)c1O [compound 132] | – | – | – | – | > 70 | > 70 | > 70 | > 70
64 to 68 | COc1ccnc(C(=O)N[C@H]2COC[C@H](Cc3ccc(Cl)cc3)[C@@H](Cc3ccc(OC(F)(F)F)cc3)[C@H](C)OC2=O)c1O [compound 137] | – | – | – | – | < 70 | > 70 | > 70 | < 70
48 to 52 | COc1ccnc(C(=O)N[C@H]2COC[C@H](CCCc3ccccc3)[C@@H](CCc3ccccc3)[C@H](C)OC2=O)c1O [compound 139] | – | – | – | – | < 70 | < 70 | > 70 | < 70
56 to 61 | COc1ccnc(C(=O)N[C@H]2COC[C@H](CC3CC3)[C@@H](Cc3ccccc3)[C@H](C)OC2=O)c1O [compound 140] | – | – | – | – | > 70 | < 70 | > 70 | < 70
66 to 71 | COc1ccnc(C(=O)N[C@H]2COC[C@H](Cc3ccc(C(F)(F)F)cc3)[C@@H](CC(C)C)[C@H](C)OC2=O)c1O [compound 141] | – | – | – | – | > 70 | > 70 | > 70 | > 70
80 to 84 | COc1ccnc(C(=O)N[C@H]2COC[C@H](Cc3ccc(Cl)cc3)[C@@H](C3CCCC3)[C@H](C)OC2=O)c1O [compound 149] | – | – | – | – | > 70 | > 70 | > 70 | > 70
38 to 43 | COc1ccnc(C(=O)N[C@H]2COC[C@H](CCC(C)C)[C@@H](C3CCCC3)[C@H](C)OC2=O)c1O [compound 150] | – | – | – | – | > 70 | > 70 | > 70 | > 70
68 to 73 | COc1ccnc(C(=O)N[C@H]2COC[C@H](Cc3ccccc3)[C@@H](COc3ccccc3)[C@H](C)OC2=O)c1O [compound 151] | – | – | – | – | > 70 | > 70 | > 70 | < 70
43 to 48 | CCC[C@H]1COC[C@H](NC(=O)c2nccc(OC)c2O)C(=O)O[C@@H](C)[C@@H]1Cc1ccc(F)cc1 [compound 155] | – | – | – | – | > 70 | > 70 | > 70 | < 70
